# Results published in patent US8193377B2, “(−)-epigallocatechin gallate derivatives for inhibiting proteasome” (The Hong Kong Polytechnic University, priority 2004, dated 2012).
# Like-named read-outs stand apart in the source and are kept apart here.
# How the values were obtained:
# [1] = target: T1, purified rabbit 20s proteasome (Oryctolagus cuniculus, UniProt G1T4Q9); experiment: Inhibition of chymotrypsin-like activity of purified 20S proteasome; type: biochemical
# T1 construct: purchased Boston Biochem (Cambridge, Mass.)
# T1 sequence (G1T4Q9 1-263): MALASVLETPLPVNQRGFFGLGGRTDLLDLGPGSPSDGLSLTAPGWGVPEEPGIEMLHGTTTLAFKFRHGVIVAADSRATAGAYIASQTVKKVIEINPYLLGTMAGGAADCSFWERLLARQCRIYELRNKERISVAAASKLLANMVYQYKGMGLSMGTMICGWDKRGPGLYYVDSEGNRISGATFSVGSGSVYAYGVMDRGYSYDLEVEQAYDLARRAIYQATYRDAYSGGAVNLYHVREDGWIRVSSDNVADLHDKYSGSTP
# Experimental: Measurement of the chyrnotrypsin-like activity of the 20s proteasome was performed by incubating 0.5 μg of purified rabbit 20s proteasome with 40 μM fluorogenic peptide substrate, Suc-Leu-Leu-Val-Tyr-AMC, with or without various concentrations of natural and synthetic tea polyphenols as described previously (Nam S et. al.).
# In order to test this hypothesis, proteasome activity was tested both in vitro and in intact Jurkat T cells with either 1 or (−)-EGCG (as a positive control). First, 1 and commercial (−)-EGCG were dissolved in DMSO and their effects on the chymotrypsin-like activity of purified 20S proteasomes were measured. […] In contrast, (−)-EGCG at 10 μM inhibited 80-90% of the proteasomal chymotrypsin-like activity. Therefore, as predicted, 1 outside of a cellular system is not a proteasome inhibitor.
# Up to 25 μM of all protected and unprotected compounds were incubated with a purified 20s proteasome and a fluorogenic substrate for chyrnotrypsin activity for 30 min. The half-maximal inhibitory concentration or IC50 was then determined. […] This is consistent with the results above.
# [2] = tested on: ubiquitinated proteins, Bax, p27, IκBα in Jurkat T cells; experiment: Western blot for ubiquitinated proteins and proteasome targets (Bax, p27, IκBα) in Jurkat T cells; type: cell-based, human; settings: 25 μM, up to 8 h
# Experimental: Whole cells extracts were prepared as described previously (An B, Goldfarb R H, Siman R, Dou Q P. Novel dipeptidyl proteasome inhibitors overcome Bc1-2 protective function and selectively accumulate the cyclin-dependent kinase inhibitor p27 and induce apoptosis in transformed, but not normal, human fibroblasts. Cell Death Differ 1998; 5: 1062-75.). Analysis of Bax, IKBa, p27, PAW, and ubiquitinated protein expression were performed using monoclonal or polyclonal antibodies according to previously reported protocols (An B et. al.).
# To determine what effects the synthetic tea analogs had on the proteasome in vivo, Jurkat cells were treated with 25 μM of each synthetic compound for either 4 or 24 h, with (−)-EGCG as a control (FIGS. 9A and 9B). […] This is consistent with the idea that protected analogs are potent inhibitors of the proteasome at an earlier time point and that after 24 h of treatment the ubiquitinated proteins are being depleted by deubiquitinating enzymes. […] The putative ubiquitinated IκBα band is still found in cells treated with 2a, 3a, and 4a (FIG. 9B, Lanes 9, 5, 7). The presumed ubiquinated IκBα band is now absent in the 24 h treatment, possibly due to deubiquitination (FIG. 9B). Actin was used as a loading control in this experiment.
# The pro-apoptotic protein Bax and the cyclin-dependent kinase inhibitor p27 are natural proteasome targets. If the peracetate-protected polyphenols inhibit the intact proteasome activity, we would expect accumulation of Bax and p27 in these cells. To test this idea, Jurkat T cells were treated with both protected and unprotected compounds and lysates were analyzed by Western blot using specific antibodies to Bax and p27 (FIG. 15). After 4 h of treatment, the peracetate-protected analogs 24* and 19*, but not their unprotected analogs, were able to increase accumulation of both Bax (by 3- and 2.5-fold, respectively) and p27 (6- and 11-fold, respectively) (FIG. 15A). After 24 h treatment, Bax levels were increased in cells treated with all of the peracetate-protected compounds (13-, 12-, 40- and 36-fold, respectively, by 24*, 19*, 21* and 23*).
# [3] = target: 20S prokaryotic proteasome (UniProt Q9P992); settings: Table 2, Reference a (Smith et al. 2004), cited from earlier work
# Sequence of 20S prokaryotic proteasome (Q9P992 whole entry): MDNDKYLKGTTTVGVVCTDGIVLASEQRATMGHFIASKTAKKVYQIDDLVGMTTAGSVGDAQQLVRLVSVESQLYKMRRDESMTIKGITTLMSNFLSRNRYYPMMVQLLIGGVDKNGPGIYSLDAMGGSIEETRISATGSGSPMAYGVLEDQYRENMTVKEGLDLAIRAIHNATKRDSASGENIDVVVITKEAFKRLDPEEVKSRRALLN
# [4] = target: 20S prokaryotic proteasome (UniProt Q9P992); experiment: Table 2: effects of tea polyphenols on 20S prokaryotic proteasome activities; type: biochemical; settings: Table 2, This work
# Experimental: To further examine the effects of B-ring —OH group deletion on proteasome-inhibitory and cell death-inducing abilities, we synthesized several novel EGCG analogs with eliminated —OH groups on the B-ring as well as their putative prodrugs, the peracetate-protected counterparts. By using a purified 20S proteasome and a chymotrypsin-like fluorogenic substrate, the proteasome-inhibitory effects of the following unprotected polyphenol analogs are determined: […]
# [5] = target: T2, proteasomal chymotrypsin-like activity in Jurkat T cells (Homo sapiens, UniProt P28074); experiment: Proteasomal chymotrypsin-like activity in intact Jurkat T cells / their lysates; type: cell-based; settings: 25 μM, 4 and 24 h
# T2 construct: measurement of the proteasomal chymotrypsin-like activity in the prepared lysates; endogenous in cells; host or cells: Jurkat T cells (human leukemia)
# T2 sequence (P28074 60-263): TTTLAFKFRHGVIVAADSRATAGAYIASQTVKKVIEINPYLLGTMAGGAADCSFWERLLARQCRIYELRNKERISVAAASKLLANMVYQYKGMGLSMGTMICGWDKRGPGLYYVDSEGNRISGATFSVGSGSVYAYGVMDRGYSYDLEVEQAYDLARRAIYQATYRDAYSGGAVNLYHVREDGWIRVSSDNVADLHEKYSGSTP
# Experimental: VA-13 or WI-38 cells were grown in 24 well plates (2 ml/well) to 70-80% confluency, followed by 24 h treatment with […] (−)-EGCG, 2, or 2a. […] Suc-Leu-Leu-Val-Tyr-AMC substrate was then added for 2.5 h at 37° C. and the chyrnotrypsin-like activity was measured as described above. Alternatively, cells were treated with each compound at 25 μM for 4 or 24 h, and harvested and lysed. Suc-Leu-Leu-Val-Tyr-AMC (40 μM) was then incubated with the prepared cell lysates for 2.5 h and the chymotrypsin-like activity was measured as described above.
# If 1 converts to (−)-EGCG inside the cells, proteasome inhibition in vivo should be detected. To examine this possibility, human Jurkat cells was treated with 25 μM of 1 or (−)-EGCG for 12 or 24 h, followed by measurement of proteasome activity by using a chymotrypsin-like specific fluorogenic substrate in intact cells (FIG. 6a) or Western blot for ubiquinated proteins (FIG. 6b). […] To analyze the intracellular level of polyubiquitinated proteins, cells were lysed after 12 hours incubation and subjected to Western blotting. […] It is possible that the amount of EGCG generated from 1, and thus its biological activity inside the cells depends on a combination of factors: the relative permeability of 1 into the cells, the amount of esterase enzymes and the amount of anti-oxidants that may be present in the cells at any time.
# To determine whether the unprotected and protected polyphenol analogs could inhibit the proteasomal activity in intact cells, leukemia Jurkat T cells were treated with each compound at 25 μM for 4 and 24 h, followed by collection of cell pellets and measurement of the proteasomal chymotrypsin-like activity in the prepared lysates.
# [6] = up to 25 μM, 30 min incubation, read-out: IC50
# [7] = Suc-Leu-Leu-Val-Tyr-AMC, 2 h incubation, Table 1, read-out: IC50 (μM), unprotected
compound,measurement,setting,value
"O=C(O[C@@H]1Cc2c(O)cc(O)cc2O[C@H]1c1cc(O)c(O)c(O)c1)c1ccc(O)cc1 (relative stereo) [Compound 3, (2S*,3R*)-trans-5,7-Bis(hydroxy)-2-[3,4,5-tris(hydroxy)phenyl]chroman-3-yl 4-(hydroxy)benzoate]",IC50,[1]; [6],14 to 15 µM
"O=C(O[C@@H]1Cc2c(O)cc(O)cc2O[C@H]1c1cc(O)c(O)c(O)c1)c1cc(O)cc(O)c1 (relative stereo) [Compound 4, (2S*,3R*)-trans-5,7-Bis(hydroxy)-2-[3,4,5-tris(hydroxy)phenyl]chroman-3-yl 3,5-bis(hydroxy)benzoate]",time course of ubiquitinated protein accumulation,[2],highest expression after 8 hours
same,IC50,[1]; [6],14 to 15 µM
"O=C(OC1Cc2c(O)cc(O)cc2OC1c1ccc(O)c(O)c1)c1cc(O)c(O)c(O)c1 (single isomer, unassigned; (+)) [(+)-ECG]",IC50,[3]; read-out: IC50,0.73 µM
"O=C(OC1Cc2c(O)cc(O)cc2OC1c1ccc(O)c(O)c1)c1cc(O)c(O)c(O)c1 (single isomer, unassigned; (-)) [(−)-CG]",IC50,[3],0.75 µM
"O=C(O[C@H]1Cc2c(O)cc(O)c(Cc3ccccc3)c2O[C@H]1c1ccc(O)c(O)c1)c1cc(O)c(O)c(O)c1 [#1, (+)-(2S,3S)-5,7-dihydroxy-8-benzyl-2-[3,4-dihydroxy-phenyl]chroman-3-yl 3,4,5-trihydroxybenzoate]",IC50,[4],0.39 µM
O=C(OC1Cc2c(O)cc(O)cc2OC1c1ccc(O)cc1)c1cc(O)c(O)c(O)c1 (stereo not shown) [#m],IC50,[4],4.56 µM
"O=C(O[C@H]1Cc2c(O)cc(O)cc2O[C@@H]1c1ccc(O)c(O)c1)c1cc(O)c(O)c(O)c1 [(+)-CG, (+)-(2R,3S)-5,7-dihydroxy-2-(3,4-dihydroxyphenyl)chroman-3-yl 3,4,5-trihydroxybenzoate]",IC50,[3],0.73 µM
"O=C(O[C@@H]1Cc2c(O)cc(O)cc2O[C@@H]1c1ccc(O)c(O)c1)c1cc(O)c(O)c(O)c1 [(−)-ECG, (−)-epicatechin-3-gallate]",IC50,[3],0.58 µM
"O=C(O[C@@H]1Cc2c(O)cc(O)cc2O[C@@H]1c1ccc(O)cc1)c1ccc(O)cc1 [Compound 10, (−)-(2R,3R)-5,7-dihydroxy-2-(4-hydroxyphenyl)chroman-3-yl 4-hydroxybenzoate]",proteasome inhibition in intact Jurkat T cells,[5],moderate potency
same,IC50,[1]; [7],8.51 µM
"O=C(O[C@H]1Cc2c(O)cc(O)cc2O[C@@H]1c1ccc(O)c(O)c1)c1ccc(O)cc1 [Compound 11, (+)-(2R,3S)-5,7-dihydroxy-2-(3,4-dihydroxyphenyl)chroman-3-yl 4-hydroxybenzoate]",IC50,[1]; [7],7.7 µM
"O=C(O[C@@H]1Cc2c(O)cc(O)cc2O[C@@H]1c1ccc(O)c(O)c1)c1ccc(O)cc1 [Compound 12, (−)-(2R,3R)-5,7-dihydroxy-2-(3,4-dihydroxyphenyl)chroman-3-yl 4-hydroxybenzoate]",IC50,[1]; [7],5.99 µM
"O=C(O[C@H]1Cc2c(O)cc(O)cc2O[C@H]1c1ccccc1)c1cc(O)c(O)c(O)c1 [Compound 15, (+)-(2S,3S)-5,7-dihydroxy-2-phenylchroman-3-yl 3,4,5-trihydroxybenzoate]",IC50,[4],4.56 µM
same,proteasome inhibition in intact Jurkat T cells,[5],moderate potency
O=C(OC1Cc2c(O)cc(O)c(Cc3ccccc3)c2OC1c1ccc(O)c(O)c1)c1cc(O)c(O)c(O)c1 (stereo not shown) [Compound 16],IC50,[1]; [7],0.59 µM
